In ChEMBL document CHEMBL5131544, “Two-Photon Photodynamic Therapy Targeting Cancers with Low Carboxylesterase 2 Activity Guided by Ratiometric Fluorescence” (J Med Chem, 2022):
The source made the active and inactive calls. No cut-off for these calls is given here.

Experiments:
PANC-1 [1] = assay: Induction of ROS production in human PANC-1 cells at 20 uM preincubated for 3 hrs followed by compound washout and 900 nm light irradiation by DCFH-DA staining based two-photon fluorescence microscopy analysis; format: functional, cell-based
HepG2 = assay: Phototoxicity against human HepG2 cells assessed as reduction in cell viability after 3 hrs followed by compound washout and 415 nm light irradiation measured after overnight incubation by MTT assay; format: functional; conditions: HepG2, light or radiation study
[2] = Drug uptake in human PANC-1 cells at 0.5 to 20 uM after 3 hrs under 900 nm light irradiation by two-photon based fluorescence imaging assay; format: ADME, cell-based; conditions: panc-1, 3 h, dose 0.5-20 µM
PANC-1 [3] = assay: Antitumor activity against human PANC-1 tumor spheroids at 20 uM preincubated for 3 hrs followed by compound washout and 900 nm light irradiation by two-photon baseReadyProbes blue/green imaging analysis; format: functional, cell-based
[4] = Induction of singlet oxygen production assessed as singlet oxygen quantum yield at 20 uM upon 415 nm light irradiation by ABDA assay; format: functional
PANC-1 [5] = assay: Induction of apoptosis in human PANC-1 cells assessed as caspase 3 cleavage at 20 uM preincubated for 3 hrs followed by compound washout and 415 nm light irradiation for 10 mins and measured after 20 to 1440 mins post irradiation by Western blot analysis; format: functional, cell-based
MCF7 [6] = assay: Phototoxicity against human MCF7 cells assessed as reduction in cell viability after 3 hrs followed by compound washout and 415 nm light irradiation measured after overnight incubation by MTT assay; format: functional
[7] = Induction of ROS production in DBPS at pH 7.4 assessed as DCF production at 20 uM upon 415 nm light irradiation by fluorescence spectra analysis; format: functional
PANC-1 [8] = assay: Induction of apoptosis in human PANC-1 cells assessed as necrosis at 20 uM preincubated for 3 hrs followed by compound washout and 415 nm light irradiation for 10 mins and measured after 24 hrs post irradiation by Hoeschst-33342/PI staining based assay; format: functional, cell-based
[9] = Dark toxicity against human PANC-1 cells assessed as reduction in cell viability after 3 hrs by MTT assay; format: cell-based
PANC-1 [10] = assay: Induction of apoptosis in human PANC-1 cells at 20 uM preincubated for 3 hrs followed by compound washout and 415 nm light irradiation for 10 mins and measured after 4 to 24 hrs post irradiation by Annexin V-FITC staining based assay; format: functional, cell-based
PANC-1 [11] = assay: Induction of cell death in human PANC-1 cells assessed as reduction in cell viability preincubated for 2 hrs followed by compound washout and immediate 900 nm light irradiation and measured 1 hr post light irradiation by two-photon based ReadyProbes blue/green imaging analysis; format: functional
PANC-1 [12] = assay: Phototoxicity against human PANC-1 cells assessed as reduction in cell viability after 3 hrs followed by compound washout and 415 nm light irradiation measured after overnight incubation by MTT assay; format: functional
PANC-1 [13] = assay: Induction of cell death in human PANC-1 cells assessed as reduction in cell viability preincubated for 3 hrs followed by compound washout and immediate 900 nm light irradiation and measured 1 hr post light irradiation by two-photon based MTT assay; format: functional
PANC-1 [14] = assay: Induction of apoptosis in human PANC-1 cells at 20 uM preincubated for 3 hrs followed by compound washout and 415 nm light irradiation for 10 mins and measured after 1 hr post irradiation by Annexin V-FITC staining based assay; format: functional, cell-based
A549 = assay: Phototoxicity against human A549 cells assessed as reduction in cell viability after 3 hrs followed by compound washout and 415 nm light irradiation measured after overnight incubation by MTT assay; format: functional
MCF7 [15] = assay: Induction of ROS production in human MCF7 cells at 20 uM incubated for 3 hrs under 415 nm light irradiation by DCFH-DA staining based fluorescence microscopic analysis; format: functional, cell-based
PANC-1 [16] = assay: Induction of apoptosis in human PANC-1 cells assessed as membrane decomposition at 20 uM preincubated for 3 hrs followed by compound washout and 415 nm light irradiation for 10 mins and measured after 24 hrs post irradiation by Hoeschst-33342/PI staining based assay; format: functional, cell-based
[17] = Dark toxicity against human HepG2 cells assessed as reduction in cell viability after 3 hrs by MTT assay; format: cell-based
PANC-1 [18] = assay: Induction of apoptosis in human PANC-1 cells assessed as shrinkage of cells at 20 uM preincubated for 3 hrs followed by compound washout and 415 nm light irradiation for 10 mins and measured after 24 hrs post irradiation by Hoeschst-33342/PI staining based assay; format: functional, cell-based
PANC-1 [19] = assay: Induction of cell death in human PANC-1 cells assessed as […] cleavage at 20 uM after 6 hrs under 900 nm light irradiation by two-photon based Western blotting analysis; format: functional
[20] = Dark toxicity against human A549 cells assessed as reduction in cell viability after 3 hrs by MTT assay; format: cell-based
PANC-1 [21] = assay: Induction of apoptosis in human PANC-1 cells at 20 uM preincubated for 3 hrs followed by compound washout and 415 nm light irradiation for 10 mins and measured after 20 mins post irradiation by Annexin V-FITC staining based assay; format: functional, cell-based
PANC-1 [22] = assay: Induction of ROS production in human PANC-1 cells at 20 uM incubated for 3 hrs under 415 nm light irradiation by DCFH-DA staining based fluorescence microscopic analysis; format: functional, cell-based
[23] = Dark toxicity against human MCF7 cells assessed as reduction in cell viability after 3 hrs by MTT assay; format: cell-based
PANC-1 [24] = assay: Induction of cell morphological changes in human PANC-1 cells at 20 uM preincubated for 2 hrs followed by compound washout and 900 nm light irradiation measured after 1 hr post irradiation by two-photon based bright field imaging analysis; format: functional
[25] = PANC-1, light or radiation study

With `O=C(Nc1ccc2c3c(cccc13)C(=O)C=C2)c1ccccc1` the Activity (PANC-1 [1]) was “Active”, the CC50 (HepG2) was greater than 32 µM and the Drug uptake [2] was “Active”. For the same compound, the Activity (PANC-1 [3]) was “Active”, the Activity [4] was 0.18 and the Activity (PANC-1 [5]) was “Active”. The Activity (MCF7 [6]; DDE = dose-dependent effect) was “Dde”, the CC50 (MCF7 [6]; MCF7, light or radiation study) was 1.6 µM and the Activity [7] was “Active”. For the same compound, the Activity (PANC-1 [8]) was “Active”, the CC50 at 3 h [9] was greater than 32 µM and the Activity (PANC-1 [10]) was “Active”. For the same compound, the Activity (PANC-1 [11]; DDE = dose-dependent effect) was “Dde”, the CC50 (PANC-1 [11]; [25]) was 0.647 µM and the Activity (PANC-1 [12]; DDE = dose-dependent effect) was “Dde”. The CC50 (PANC-1 [12]; [25]) was 1.4 µM, the Activity (PANC-1 [13]; DDE = dose-dependent effect) was “Dde” and the CC50 (PANC-1 [13]; [25]) was 0.647 µM. For the same compound, the Activity (PANC-1 [14]) was “Active”, the CC50 (A549; A549, light or radiation study) was 4.4 µM and the Activity (A549; DDE = dose-dependent effect) was “Dde”. The Activity (MCF7 [15]) was “Active”, the Activity (PANC-1 [16]) was “Active” and the CC50 at 3 h [17] was greater than 32 µM. The Activity (PANC-1 [18]) was “Active”, the Activity (PANC-1 [19]) was “Active” and the CC50 at 3 h [20] was greater than 32 µM. For the same compound, the Activity (PANC-1 [21]) was “Active”, the Activity (PANC-1 [22]) was “Active” and the CC50 at 3 h [23] was greater than 32 µM. The Activity (PANC-1 [24]) was “Active”.
